Calls of active or inactive are those of the source. Rule as the data show it, for most assays here: actives have a measured EC50 and inactives only a lower limit.
Assays:
Hexokinase HKDC1 = target: T1, Hexokinase HKDC1 (Homo sapiens, UniProt Q2TB90); assay: SAR analysis of small molecule inhibitors of hexokinase domain containing I (HKDC1). [Related pubchem assays (depositor defined):AID493160, AID493190]; type: functional
T1 sequence (Q2TB90 whole entry): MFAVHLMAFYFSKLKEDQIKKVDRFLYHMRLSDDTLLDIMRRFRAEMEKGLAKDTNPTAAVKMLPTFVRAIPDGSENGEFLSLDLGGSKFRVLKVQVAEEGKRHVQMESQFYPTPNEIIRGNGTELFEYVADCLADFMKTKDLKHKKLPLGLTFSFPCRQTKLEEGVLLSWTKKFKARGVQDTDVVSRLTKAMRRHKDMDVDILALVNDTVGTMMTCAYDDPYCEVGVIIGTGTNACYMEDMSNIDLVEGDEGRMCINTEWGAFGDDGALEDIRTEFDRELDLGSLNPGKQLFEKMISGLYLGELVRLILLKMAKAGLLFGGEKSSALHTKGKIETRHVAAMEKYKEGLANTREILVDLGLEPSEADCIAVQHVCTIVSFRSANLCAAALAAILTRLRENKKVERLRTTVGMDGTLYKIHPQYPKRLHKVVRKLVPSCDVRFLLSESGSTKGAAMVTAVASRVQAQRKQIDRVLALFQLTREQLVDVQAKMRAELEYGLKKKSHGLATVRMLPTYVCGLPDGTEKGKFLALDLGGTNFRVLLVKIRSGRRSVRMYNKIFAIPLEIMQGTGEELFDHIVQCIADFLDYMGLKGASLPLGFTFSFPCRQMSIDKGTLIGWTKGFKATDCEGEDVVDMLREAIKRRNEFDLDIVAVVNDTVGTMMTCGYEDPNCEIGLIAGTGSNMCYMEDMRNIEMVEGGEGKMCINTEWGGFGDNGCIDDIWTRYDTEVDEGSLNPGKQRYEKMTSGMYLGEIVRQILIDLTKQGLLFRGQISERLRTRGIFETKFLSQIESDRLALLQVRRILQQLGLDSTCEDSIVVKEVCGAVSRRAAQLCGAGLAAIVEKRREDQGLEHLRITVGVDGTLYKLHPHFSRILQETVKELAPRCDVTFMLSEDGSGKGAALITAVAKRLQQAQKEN

Hexokinase-1 = target: T2, Hexokinase-1 (Homo sapiens, UniProt P19367); assay: SAR analysis of small molecule inhibitors of hexokinase domain containing I (HKDC1) in the hexokinase 1 selectivity assay. [Related pubchem assays (depositor defined):AID493160, AID493190]; type: functional
T2 sequence (P19367 whole entry): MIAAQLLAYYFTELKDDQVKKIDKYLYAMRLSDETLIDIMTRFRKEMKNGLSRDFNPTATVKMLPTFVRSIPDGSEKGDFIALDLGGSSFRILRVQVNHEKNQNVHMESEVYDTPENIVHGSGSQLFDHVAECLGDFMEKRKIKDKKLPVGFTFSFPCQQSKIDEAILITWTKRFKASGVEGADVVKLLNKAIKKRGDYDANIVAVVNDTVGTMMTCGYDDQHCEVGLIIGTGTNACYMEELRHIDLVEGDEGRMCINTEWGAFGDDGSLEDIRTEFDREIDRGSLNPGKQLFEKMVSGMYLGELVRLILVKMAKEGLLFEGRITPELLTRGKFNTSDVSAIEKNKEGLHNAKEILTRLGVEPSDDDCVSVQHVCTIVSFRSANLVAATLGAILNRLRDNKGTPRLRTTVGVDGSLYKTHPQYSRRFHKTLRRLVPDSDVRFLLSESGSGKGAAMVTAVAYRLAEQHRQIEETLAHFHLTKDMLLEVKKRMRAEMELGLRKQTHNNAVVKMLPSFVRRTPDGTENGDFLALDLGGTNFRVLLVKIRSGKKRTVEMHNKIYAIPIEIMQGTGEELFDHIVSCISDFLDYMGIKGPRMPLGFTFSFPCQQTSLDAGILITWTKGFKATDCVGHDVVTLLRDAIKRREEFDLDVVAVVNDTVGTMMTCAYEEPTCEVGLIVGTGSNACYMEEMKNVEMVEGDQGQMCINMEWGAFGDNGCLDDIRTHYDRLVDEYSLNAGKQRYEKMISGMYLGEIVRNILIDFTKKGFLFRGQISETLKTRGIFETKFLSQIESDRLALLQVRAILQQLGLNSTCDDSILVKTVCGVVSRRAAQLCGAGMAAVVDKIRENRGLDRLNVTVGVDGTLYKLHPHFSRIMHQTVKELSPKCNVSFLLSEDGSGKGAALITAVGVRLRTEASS

[1] = reduction of Shn3 3'UTR-driven luciferase in osteoblasts – cell-based, Clone20 osteoblasts, firefly luciferase, cherry-picked, dose response (AID 624132); type: functional;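 also: firefly luciferase luminescence from reporter carrying the Shn3 3'UTR in osteoblasts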
H9c2 = assay: cells; type: functional, cell-based; details: Rattus norvegicus, H9c2, Myocardium;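 also: confirmatory concentration-response retest of ultra-high-throughput screening hits for modulation of myocardial damage; cell death induced by hydrogen peroxide oxidative stress; compound pretreatment for 60 min then peroxide exposure for 2 h; potency is for protecting the cells against peroxide damage rather than for killing them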
Beta-galactosidase = Beta-galactosidase (Escherichia coli, UniProt Q8VNN2); assay: PubChem AID 485352; type: functional
Streptokinase A = target: T3, Streptokinase A (Streptococcus pyogenes serotype M1, UniProt P10520); assay: viability-normalized secreted streptokinase activity reduction – plasminogen activation absorbance, OD405, dose response (AID 1914); type: functional, Streptococcus pyogenes M1 GAS;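 also: secreted streptokinase activity via plasminogen activation per viability signal from cell pellet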
T3 sequence (P10520 whole entry): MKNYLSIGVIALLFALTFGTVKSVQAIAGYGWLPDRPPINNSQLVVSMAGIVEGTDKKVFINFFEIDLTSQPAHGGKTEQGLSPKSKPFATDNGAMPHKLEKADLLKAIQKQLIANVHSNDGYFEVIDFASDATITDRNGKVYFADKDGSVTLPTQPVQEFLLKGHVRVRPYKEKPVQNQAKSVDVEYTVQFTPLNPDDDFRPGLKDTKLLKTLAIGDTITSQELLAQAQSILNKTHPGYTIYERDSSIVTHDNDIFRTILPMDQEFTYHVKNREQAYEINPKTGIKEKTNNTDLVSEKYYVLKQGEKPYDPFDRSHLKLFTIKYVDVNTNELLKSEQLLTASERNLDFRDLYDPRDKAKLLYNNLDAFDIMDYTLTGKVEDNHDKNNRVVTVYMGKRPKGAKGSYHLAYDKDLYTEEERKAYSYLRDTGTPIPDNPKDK

[2] = target: T4, Type-1 angiotensin II receptor (Homo sapiens, UniProt P30556); assay: antagonism of angiotensin II type 1 receptor – cell-based, uHTS hits, selectivity assay for APJ receptor antagonist project, dose response (AID 463214); type: functional;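 also: antagonist potency against angiotensin II stimulated AT1 response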
T4 sequence (P30556 whole entry): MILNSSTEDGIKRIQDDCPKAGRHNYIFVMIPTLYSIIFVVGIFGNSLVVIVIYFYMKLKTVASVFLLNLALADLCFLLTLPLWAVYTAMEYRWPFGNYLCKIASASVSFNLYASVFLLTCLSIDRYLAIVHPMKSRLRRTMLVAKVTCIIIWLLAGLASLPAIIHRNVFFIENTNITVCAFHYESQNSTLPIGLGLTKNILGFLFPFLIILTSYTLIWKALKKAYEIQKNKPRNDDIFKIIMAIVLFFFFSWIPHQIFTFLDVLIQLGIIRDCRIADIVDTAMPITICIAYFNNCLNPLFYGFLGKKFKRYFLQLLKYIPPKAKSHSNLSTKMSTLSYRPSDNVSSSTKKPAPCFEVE

[3] = NIH-3T3 fibroblast cytotoxicity, dose response, cytotoxicity control, cell-based, fluorescence, Alamar Blue, secondary assay (AID 2327); type: functional;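 also: NIH-3T3 mouse fibroblasts cultured with fluconazole at 8 µg/mL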
[4] = target: T5, Heat shock factor protein 1 (Mus musculus, UniProt P38532); assay: enhancement of HSF1-driven luciferase signal – cell-based, NIH3T3, luminescence, dose retest, confirmation (AID 435004); type: functional;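 also: stress induced by proteasome inhibitor MG132 added 30 min after compound; luciferase reporter driven by HSF1 response element in NIH3T3 cells; actives raise luminescence as potentiators of the MG132 stress response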
T5 sequence (P38532 whole entry): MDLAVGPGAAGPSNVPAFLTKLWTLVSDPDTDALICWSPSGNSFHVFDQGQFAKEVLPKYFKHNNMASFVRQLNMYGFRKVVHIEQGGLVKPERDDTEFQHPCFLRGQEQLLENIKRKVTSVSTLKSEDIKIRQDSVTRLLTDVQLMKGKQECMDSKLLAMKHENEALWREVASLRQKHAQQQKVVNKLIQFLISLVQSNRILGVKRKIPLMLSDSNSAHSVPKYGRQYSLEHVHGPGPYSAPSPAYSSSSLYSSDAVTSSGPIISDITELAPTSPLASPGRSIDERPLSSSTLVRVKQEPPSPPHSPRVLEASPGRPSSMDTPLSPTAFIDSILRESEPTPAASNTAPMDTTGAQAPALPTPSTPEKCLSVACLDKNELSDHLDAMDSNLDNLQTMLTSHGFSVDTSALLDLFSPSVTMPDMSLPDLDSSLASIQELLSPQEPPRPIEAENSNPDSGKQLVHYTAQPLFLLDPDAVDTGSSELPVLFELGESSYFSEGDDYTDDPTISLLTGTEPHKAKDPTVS

Streptococcus = assay: GAS UMAA2166 growth inhibition – luminescence, BacTiterGlo, counter-screen for streptokinase expression inhibitor project, dose response (AID 1915); type: functional, organism-based;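 also: potency for reduction of bacterial viability or growth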
[5] = NIH3T3 cell viability loss – ATP luminescence, mouse fibroblasts, counter-screen, dose response (AID 2010); type: functional, cell-based;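 also: cells exposed to compound for about 90 hours before reading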
[6] = tested on: Streptococcus sp. 'group A'; assay: Streptococcus pyogenes SK(-)GAS viability under kanamycin – luminescence, BacTiterGlo, confirmation, counter-screen for streptokinase expression inhibitor project, dose response (AID 1900); type: functional, organism-based
[7] = loss of viability in HepG2 cells – cell-based, CellTiter-Glo, cherry-picked, cytotoxicity control for Shn3 inhibitor project, dose response (AID 624134); type: functional
[8] = fluconazole-exposed Candida albicans growth modulators – fluorescence, retest, confirmation (AID 2467); type: functional, cell-based
[9] = Trypanosoma cruzi growth suppression in host cells – NIH3T3 host cells, beta-gal luminescence, confirmation (AID 2044); type: functional, cell-based;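 also: intracellular parasites grown in NIH/3T3 mouse fibroblasts as host cells; luminescent beta-galactosidase reporter signal from transgenic T. cruzi replicating inside host cells; inhibitors lower the luminescence signal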
[10] = target: ATP-dependent molecular chaperone HSP82 (Candida albicans (strain WO-1) (Yeast), UniProt C4YTQ8); assay: steroid-induced GRE reporter decrease in yeast – S. cerevisiae, luminescence, Hsp90 inhibitor project, dose response (AID 2400); type: functional, cell-based;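 also: beta-galactosidase luminescence from glucocorticoid response element reporter as proxy for Hsp90 function; inhibitor potency where signal loss means Hsp90 inhibition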
[11] = target: T6, Serine/threonine-protein phosphatase (Candida dubliniensis (strain CD36 / CBS 7987 / NCPF 3949 / NRRLY-17841) (Yeast), UniProt B9W6M3); assay: blockers of CaCl2-induced CDRE-lacZ signaling – S. cerevisiae, luminescence, secondary, dose response (AID 2388); type: functional, cell-based;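 also: yeast reporter cells carrying a calcineurin-responsive lacZ construct stimulated with calcium chloride; luminescent beta-galactosidase reporter signal in whole cells rather than isolated phosphatase activity; potency for inhibition where a drop in reporter signal means calcineurin blockade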
T6 sequence (B9W6M3 whole entry): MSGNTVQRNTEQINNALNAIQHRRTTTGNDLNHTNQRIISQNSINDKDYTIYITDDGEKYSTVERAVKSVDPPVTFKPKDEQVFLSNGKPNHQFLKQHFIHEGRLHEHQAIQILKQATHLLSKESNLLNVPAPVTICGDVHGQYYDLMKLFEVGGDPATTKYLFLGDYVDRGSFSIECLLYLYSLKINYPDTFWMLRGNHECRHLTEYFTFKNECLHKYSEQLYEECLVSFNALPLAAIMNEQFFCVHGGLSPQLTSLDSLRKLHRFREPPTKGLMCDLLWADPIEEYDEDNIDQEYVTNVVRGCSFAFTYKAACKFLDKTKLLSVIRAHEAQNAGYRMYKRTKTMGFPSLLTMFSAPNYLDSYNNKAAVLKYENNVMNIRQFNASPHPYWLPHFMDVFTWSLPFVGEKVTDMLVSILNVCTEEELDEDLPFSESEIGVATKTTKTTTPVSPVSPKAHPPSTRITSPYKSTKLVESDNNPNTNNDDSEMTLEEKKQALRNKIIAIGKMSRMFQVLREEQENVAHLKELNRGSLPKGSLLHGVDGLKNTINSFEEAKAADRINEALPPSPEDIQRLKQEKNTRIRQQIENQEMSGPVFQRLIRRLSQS

Sequence of ATP-dependent molecular chaperone HSP82 (C4YTQ8 whole entry): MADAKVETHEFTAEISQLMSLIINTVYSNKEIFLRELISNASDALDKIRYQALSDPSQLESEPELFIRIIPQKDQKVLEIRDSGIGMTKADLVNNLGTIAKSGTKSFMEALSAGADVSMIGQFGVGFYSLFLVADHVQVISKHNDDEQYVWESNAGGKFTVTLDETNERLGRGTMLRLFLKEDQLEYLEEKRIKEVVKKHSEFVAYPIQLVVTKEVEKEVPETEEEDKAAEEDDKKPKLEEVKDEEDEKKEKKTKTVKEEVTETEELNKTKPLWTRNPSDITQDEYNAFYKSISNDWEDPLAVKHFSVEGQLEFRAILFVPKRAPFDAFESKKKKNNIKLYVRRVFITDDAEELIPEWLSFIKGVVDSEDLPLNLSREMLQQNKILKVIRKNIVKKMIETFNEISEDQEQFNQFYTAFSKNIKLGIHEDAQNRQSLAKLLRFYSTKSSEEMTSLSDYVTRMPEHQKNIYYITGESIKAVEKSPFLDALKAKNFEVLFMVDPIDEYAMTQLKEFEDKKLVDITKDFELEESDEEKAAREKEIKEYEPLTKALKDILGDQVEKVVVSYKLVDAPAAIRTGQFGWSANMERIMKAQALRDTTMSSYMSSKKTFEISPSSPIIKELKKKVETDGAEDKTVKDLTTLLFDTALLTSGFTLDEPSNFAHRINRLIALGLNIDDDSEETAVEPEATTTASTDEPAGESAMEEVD
Sequence of Beta-galactosidase (Q8VNN2 whole entry): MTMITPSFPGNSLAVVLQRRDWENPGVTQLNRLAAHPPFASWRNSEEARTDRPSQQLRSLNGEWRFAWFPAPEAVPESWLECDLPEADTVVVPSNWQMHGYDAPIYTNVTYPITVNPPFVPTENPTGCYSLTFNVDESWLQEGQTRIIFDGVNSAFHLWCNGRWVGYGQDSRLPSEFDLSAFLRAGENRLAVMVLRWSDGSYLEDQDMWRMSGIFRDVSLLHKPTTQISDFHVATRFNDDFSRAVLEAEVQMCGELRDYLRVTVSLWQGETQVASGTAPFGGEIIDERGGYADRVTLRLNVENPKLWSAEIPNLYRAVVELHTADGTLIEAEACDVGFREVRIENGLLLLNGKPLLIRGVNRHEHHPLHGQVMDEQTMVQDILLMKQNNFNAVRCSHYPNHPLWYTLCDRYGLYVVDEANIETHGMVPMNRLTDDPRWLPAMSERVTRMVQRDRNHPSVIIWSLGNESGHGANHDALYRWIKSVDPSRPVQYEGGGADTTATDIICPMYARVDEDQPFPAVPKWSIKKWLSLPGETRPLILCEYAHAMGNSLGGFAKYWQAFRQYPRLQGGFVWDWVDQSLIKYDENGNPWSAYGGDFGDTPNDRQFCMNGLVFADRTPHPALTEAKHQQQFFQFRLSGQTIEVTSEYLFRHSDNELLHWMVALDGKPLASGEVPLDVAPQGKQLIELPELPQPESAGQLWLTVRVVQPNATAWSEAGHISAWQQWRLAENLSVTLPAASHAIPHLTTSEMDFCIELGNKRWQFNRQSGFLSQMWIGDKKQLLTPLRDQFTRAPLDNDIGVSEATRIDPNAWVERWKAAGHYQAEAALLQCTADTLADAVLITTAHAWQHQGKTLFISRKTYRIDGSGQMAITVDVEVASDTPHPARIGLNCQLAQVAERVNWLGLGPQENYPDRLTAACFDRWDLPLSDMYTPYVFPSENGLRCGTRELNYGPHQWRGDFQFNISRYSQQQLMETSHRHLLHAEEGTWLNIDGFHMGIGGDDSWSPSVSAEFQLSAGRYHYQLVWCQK

Row | Structure (SMILES) | IC50 (Hexokinase HKDC1) | IC50 (Hexokinase-1) | EC50 [3] | EC50 [8] | EC50 [10] | EC50 [11] | other results
1 | O=c1c2ccccc2nc(/C=C/c2ccccc2)n1Cc1ccccc1 | > 80 µM (inactive) | > 80 µM (inactive) |  |  |  |  | 
2 | COc1ccc(NS(=O)(=O)c2ccc3ccccc3c2)c2ncccc12 |  |  | 60.9 µM (active) | > 38 µM (not active) |  |  | AC50 [1]: 4.82 µM (active); IC50 (H9c2): 11.5 µM (active); EC50 (Beta-galactosidase): > 40 µM (inactive); EC50 (Streptokinase A): > 150 µM (not active); IC50 [2]: 23.1 µM (not active); EC50 [4]: 7.48 µM (active); EC50 (Streptococcus): 4.63 µM (active); EC50 [5]: 5.55 µM (active); EC50 [6]: 1.03 µM (active); AC50 [7]: 69.5 µM (active); EC50 [9]: 0.688 µM (active)
3 | O=C(Cc1ccc(Cl)cc1)NNC(=S)NC(=O)c1cccs1 |  |  | > 160 µM (inactive) | 1.43 µM (active) | 16.6 µM (active) | > 180 µM (inactive) | 
4 | Cc1cc2nnc(SCC(=O)Nc3cccc(S(=O)(=O)N4CCCC4)c3)n2c2ccccc12 | > 80 µM (inactive) | > 80 µM (inactive) |  |  |  |  | 
5 | O=C(CCS(=O)(=O)c1ccc(F)cc1)Nc1nc(-c2ccncc2)cs1 |  |  | 18.3 µM (inconclusive) | 1.39 µM (active) | 16.5 µM (active) | > 180 µM (inactive) | 
6 | O=c1c2ccccc2nc(/C=C/c2ccccn2)n1Cc1ccccc1 | > 80 µM (inactive) | > 80 µM (inactive) |  |  |  |  | 

From ChEMBL document CHEMBL1201862, “PubChem BioAssay data set” (2004)
